Measurements taken from publication PMC2359721 (British Journal of Cancer, 2007).

Legend:
[1] = set-up: method as in Torrance et al, 2000; settings: ref Torrance et al, 2000; cited from earlier work
[2] = test system: gefitinib-resistant kinases; set-up: method as in Carter et al, 2005; Kwak et al, 2005; settings: preclinical studies, ref Carter et al, 2005, Kwak et al; cited from earlier work
EGFR phosphorylation = test system: EGFR phosphorylation; set-up: method as in Torrance et al, 2000; settings: xenograft model; ref Torrance et al, 2000; cited from earlier work
[3] = Phase I safety, DLT and MTD, OD 14 days on / 14 days off; assay type: in vivo
Description: Tablets were taken 1 h before breakfast. A cycle was defined as 14 days on treatment followed by 14 days off medication. […] The starting dose corresponded with one-fifth of the toxic dose low in rats, the most sensitive species. The dose for successive cohorts was doubled until observation of drug-related AE grade ⩾2 according to common toxicity criteria v3.0 in one or more patients in the first cycle. Thereafter escalation steps were ⩽50%. Should DLT be observed in one out of six patients and dose escalation continued, escalation steps were ⩽35%. Initially, three patients were treated per dose level. If one patient experienced drug-related DLT, three additional patients were treated. When no further patient experienced DLT, the dose was escalated. When ⩾2/6 patients experienced DLT, three additional patients were treated 1 dose tier below unless six had already been treated there.
Maximum tolerated dose was defined as the highest dose with ⩽1/6 patients experiencing DLT during cycle 1. Dose-limiting toxicity was defined as grade 3 or 4 nonhaematological toxicity except untreated nausea, vomiting, or diarrhoea; grade 4 haematological toxicity; grade 3 diarrhoea, nausea, or vomiting despite supportive care; need for loperamide for ⩾7 days to treat or prevent grade ⩾2 diarrhoea; need for continuous administration of 5HT-3 antagonists or dexamethasone to treat or prevent grade ⩾2 nausea or vomiting; occurrence of grade ⩾2 cardiac left ventricular function or renal toxicity. In the absence of DLT or disease progression, patients received six cycles and were allowed to continue in an extension protocol. Intrapatient dose escalation was not allowed. The study was approved by local Ethics Committees, and all patients provided written informed consent.
(§1) Prior to therapy, medical history taking and physical examination were performed. A complete blood cell count (CBC), white blood cell (WBC) differential and serum biochemistry were performed, as were urinalysis, electrocardiogram, MUGA scanning and, chest X-ray. Weekly evaluations during cycles 1 and 2 and every other week thereafter included physical examination, AE assessment, CBC, WBC differential and serum chemistry including renal function. Tumour measurements and MUGA scanning were performed every other cycle. Response was assessed using RECIST ([Therasse et al, 2000]).

C-SRC = settings: at concentrations 100- to 1000-fold higher; ref Boehringer-Ingelheim, data on file; cited from earlier work
[4] = target: vascular endothelial growth factor 2; settings: at concentrations 100- to 1000-fold higher; ref Boehringer-Ingelheim, data on file; cited from earlier work
[5] = test system: A431, MDA-MB-453, NCI-N87 gastric and SKOV-3 ovarian xenografts; set-up: method as in Boehringer-Ingelheim, data on file; settings: oral, ref Boehringer-Ingelheim, data on file, cited from earlier work
epidermal keratinocytes = experiment: Pharmacodynamics in paired skin biopsies (immunohistochemistry); assay type: in vivo, human; settings: on therapy day 14 cycle 1, all dose levels pooled, 36 paired biopsies; pretreatment 14.0±4.5%; P<0.0001
advanced solid tumours [6] = settings: cited from earlier work
[7] = Plasma pharmacokinetics in patients (HPLC-MS/MS, noncompartmental); settings: for CL/F / Vd/F / half-life / AUC(0-t) / Cmax / Tmax: human, plasma, oral
advanced solid tumours [8] = experiment: Antitumour activity (RECIST); assay type: in vivo, human
Description: as §1

[9] = minipig, in vivo; cited from earlier work

CCOc1cc2ncc(C#N)c(Nc3ccc(F)c(Cl)c3)c2cc1NC(=O)/C=C/CN(C)C [EKB-569]
plasma half-life [1]: 2 h | inhibition of gefitinib-resistant kinases [2]: inhibition | duration of inhibition of EGFR phosphorylation (EGFR phosphorylation): > 24 h

C=CC(=O)Nc1cc2c(Nc3ccc(F)c(Cl)c3)ncnc2cc1OCCCN1CCOCC1 [CI-1033]
inhibition of gefitinib-resistant kinases [2]: inhibition

CN(C)C/C=C/C(=O)Nc1cc2c(Nc3ccc(F)c(Cl)c3)ncnc2cc1O[C@H]1CCOC1 [BIBW 2992]
Maximum tolerated dose ([3]; OD 14 days on, 14 days off): 70 mg | recommended dose (phase 2) ([3]; OD, 14-day on, 14-day off schedule): 70 mg | incidence of diarrhoea ([3]; human, in vivo): 84% | incidence of gastrointestinal AE ([3]; human, in vivo): 92% | onset of diarrhoea ([3]; human, in vivo): ≤ 7 days | overall incidence of rash, acne and dry skin ([3]; human, in vivo): 95% | patients with grade 1 anemia ([3]; human, in vivo): 6 patients | patients with mild fatigue ([3]; human, in vivo): 24 patients | patients with mild gastrointestinal AE (diarrhoea, nausea, vomiting) ([3]; human, in vivo): 35 patients | patients with self-limiting epistaxis ([3]; human, in vivo): 20 patients | DLT observed in cycle 1, initial 70 mg cohort ([3]; in vivo): one | patients with LVEF reduction ([3]; in vivo): Two | patients with grade 1 thrombocytopaenia ([3]; in vivo): two | patients with grade 2 ALT ([3]; in vivo): three | patients with grade 2 AST ([3]; in vivo): four | patients with grade 2 alkaline phosphatase ([3]; in vivo): five | patients with grade 2 bilirubin ([3]; in vivo): two | kinase inhibition (C-SRC): not inhibited | kinase inhibition [4]: not inhibited | tumour regression ([5]; mice with A431, MDA-MB-453, NCI-N87 gastric, SKOV-3 ovarian models): induced tumour regression | plasma concentrations at which tumour regression was induced ([5]; xenograft models in mice): 80 to 280 nM | percentage Ki-67-positive cells (means±s.d.) (epidermal keratinocytes): 7.9±4.5% | patients with partial tumour responses (advanced solid tumours [6]; adenocarcinoma of the lung, ref Shaw et al, 2006): two | LVEF changes in additional trials (advanced solid tumours [6]; preliminary data from ⩾120 patients, ref Agus et al, 2006, Shaw et al): not indicated significant LVEF changes | time to reach steady state ([7]; OD dosing): ≤ 8 days | CL/F [7]: 383 to 1390 mL/min | Vd/F [7]: 1250 to 4760 L | half-life [7]: 28 to 43 h | AUC(0-t) ([7]; 10 mg): 199 ng·h/mL | CL/F ([7]; 10 mg): 839 mL/min | Cmax ([7]; 10 mg): 14.1 ng/mL | Tmax ([7]; 10 mg): 2.98 h | Vd/F ([7]; 10 mg): 2610 L | half-life ([7]; 10 mg): 35.9 h | AUC(0-t) ([7]; 20 mg): 241 ng·h/mL | CL/F ([7]; 20 mg): 1390 mL/min | Cmax ([7]; 20 mg): 16.2 ng/mL | Tmax ([7]; 20 mg): 4 h | Vd/F ([7]; 20 mg): 4760 L | half-life ([7]; 20 mg): 39.7 h | AUC(0-t) ([7]; 30 mg): 1310 ng·h/mL | CL/F ([7]; 30 mg): 383 mL/min | Cmax ([7]; 30 mg): 111 ng/mL | Tmax ([7]; 30 mg): 0.95 h | Vd/F ([7]; 30 mg): 1250 L | half-life ([7]; 30 mg): 37.7 h | AUC(0-t) ([7]; 45 mg): 840 ng·h/mL | CL/F ([7]; 45 mg): 893 mL/min | Cmax ([7]; 45 mg): 68.4 ng/mL | Tmax ([7]; 45 mg): 3 h | Vd/F ([7]; 45 mg): 3350 L | half-life ([7]; 45 mg): 43.4 h | AUC(0-t) ([7]; 70 mg): 2620 ng·h/mL | CL/F ([7]; 70 mg): 445 mL/min | Cmax ([7]; 70 mg): 180 ng/mL | Tmax ([7]; 70 mg): 2 h | Vd/F ([7]; 70 mg): 1530 L | half-life ([7]; 70 mg): 39.6 h | AUC(0-t) ([7]; 85 mg): 2340 ng·h/mL | CL/F ([7]; 85 mg): 604 mL/min | Cmax ([7]; 85 mg): 163 ng/mL | Tmax ([7]; 85 mg): 2 h | Vd/F ([7]; 85 mg): 1610 L | half-life ([7]; 85 mg): 30.8 h | AUC(0-t) ([7]; 100 mg): 2750 ng·h/mL | CL/F ([7]; 100 mg): 606 mL/min | Cmax ([7]; 100 mg): 234 ng/mL | Tmax ([7]; 100 mg): 1 h | Vd/F ([7]; 100 mg): 1500 L | half-life ([7]; 100 mg): 28.6 h | objective response (advanced solid tumours [8]; 38 patients, 10–100 mg): No partial or complete responses | patients with minor tumour regressions (advanced solid tumours [8]; all treated at doses of ⩾45 mg): Eight | median number of cycles in patients with stable disease (advanced solid tumours [8]; patients with stable disease ⩾4 cycles): 6 (range 5–9) cycles | patients with stable disease lasting ⩾4 cycles (advanced solid tumours [8]; various tumour types): seven | organs in which toxicity occurred [9]: gastrointestinal tract

CCOc1cc2ncc(C#N)c(Nc3ccc(OCc4ccccn4)c(Cl)c3)c2cc1NC(=O)/C=C/CN(C)C [HKI-272]
inhibition of gefitinib-resistant kinases [2]: inhibition
